According to patent US12162850B2, “Formulations” (Betagenon AB, priority 2019, dated 2024):

Experiments:
[1] = Particle size analysis of dry-milled products (laser diffraction, Shimadzu SALD-2300); assay type: physicochemical
Experimental: Milling was performed for Examples 1a to 1c using an air jet mill (Equipment code: CP-AJM-01; Promas engineers) with the following parameters: Micronisation was repeated in all examples by performing the air jet milling for a second time using the same parameters. This allowed the particle size D90 to be reduced to less than 10 μm. [table] Four drops of Tween 20 were added to 25 mL of water and the mixture was sonicated for 3 minutes to form the dispersant solution. 0.05 g of milled material was transferred into a 250 mL glass beaker. 25 mL of the dispersant solution (Tween 20/water mixture) was added to the beaker with continuous swirling for 2 to 3 minutes. The suspension was transferred into the measuring unit and the particle size distribution measurements were conducted in triplicate.

[2] = Single dose oral pharmacokinetic studies in rabbits; assay type: in vivo, male New Zealand White rabbits; details: for Plasma concentration, mean: 90 mg/kg b.w. oral; for AUCextrap / AUC(0-inf) / AUC(0-t) / Cmax / MRT last / Tmax / half-life: 90 mg/kg b.w. oral single dose; for AUC(0-inf) / AUC(0-t) / Cmax / MRT last / Tmax / half-life: male, New Zealand White, plasma, po, 90 mg/kg
Experimental: The studies detailed below (and referred to as Examples 2 to 8) were conducted to provide comparative single dose oral pharmacokinetics data for Compound 1, as well as sodium and potassium salts of that compound, using non-coated and enteric-coated capsules in male New Zealand White rabbits.
Compound 1 was made using the process described in WO 2011/004162 and milled as described for Example 1c. The non-coated or enteric coated gelatin capsules were individually filled with 180 mg of dry-milled Compound 1 together with accompanying excipients as indicated. Both capsule types were filled with Compound 1 together with 1.8 mg of sodium docusate, 0.18 mg of PVP K30 and 9 mg of mannitol.
Similarly, Compound 2, non-coated or enteric coated gelatin capsules were individually filled with 180 mg of dry-milled Compound 2 (as obtained in Example 1f) together with 1.8 mg of sodium docusate, 0.18 mg of PVP K30 and 9 mg of mannitol.
For Compound 3, non-coated or enteric coated gelatin capsules were individually filled with 90 mg of dry-milled Compound 3 (as obtained in Example 1i) together with 0.90 mg of sodium docusate, 0.09 mg of PVP K30 and 4.50 mg of mannitol.
40 mL of the 2% w/v methyl cellulose solution was added to a 250 mL conical flask together with 10 g of 2 mm glass beads, and vigorously stirred. Compound 1 (720 mg) was slowly added to the solution and the mixture was with continuously stirred for 1 h. The homogenate was transferred to separate flask and its pH recorded. The suspension formulation was prepared before administration to the animals.
Adult healthy male New Zealand white rabbits aged approximately 2 to 3 months old were used for experimentation after 7 days of acclimatization.
To dose the filled capsules, a soft plastic dosing tube was used. The filled capsule was inserted into the dosing tube so that the short end of the capsule protrudes slightly from the tip of the tube. The tip of the capsule was dipped in mineral oil to aid swallowing.
To dose the suspension, an infant feeding tube was used. The feeding tube was inserted through the mouth of the rabbit to the oesophagus and the stomach, and ascertained that it has not been placed in the trachea before dosing to the animals. The suspension of the Compound 1 was administered through the feeding tube. After the administration of the suspension, drinking water of approximately 2.0-2.5 mL was administered to flush out the contents in the feeding tube.
The animals were restrained in a rabbit restrainer and blood samples (400-500 μL/time point) were collected via the central ear artery at 0.16, 0.25, 0.50, 1.0, 2.0, 4.0, 6.0, 8.0, 24.0, 48.0 and 72 hours post-dosing. Collected blood specimens were centrifuged at 4000 or 6000 rpm, 4° C. for 10 minutes and plasma samples were separated and stored at −80° C. until analysis.
Concentrations of the analyte of Compound 1 in New Zealand white rabbits was determined using an API 3200 Q-trap LC-MS/MS system.
Chromatographic separation was achieved on Zorbax C18, 50×4.6 mm, 5 μm column with methanol-0.1% formic acid as mobile phase with gradient elution. The flow rate was set at 1.0 mL min^−1. Detection was accomplished by a triple-quadrupole tandem mass spectrometer in multiple-reaction monitoring (MRM) scanning via electrospray ionization source, applied in the positive mode. The optimised mass transition ion-pairs for quantitation were m/z 379.999→125.000 for the compound 1 and m/z 376.165→165.00 for the ISD (Haloperidol). Calibration plots were linear over the range of 11.062 to 20594.820 ng/mL.
The data of plasma concentration to respective time points for the analyte Compound 1 were used for the pharmacokinetic analysis. Pharmacokinetic analysis was performed using non-compartmental analysis (NCA) module of Phoenix WinNonlin 6.3 software to determine the following pharmacokinetic parameters: • Cmax • Tmax • AUC0-t • AUC0-∞ • T1/2 • MRT […]

[3] = after 1st milling (air jet mill)
[4] = after 2nd milling (air jet mill)
[5] = rabbit, enteric coated capsule, rabbit plasma (Examples 5, 6, 7)
[6] = rabbit, non-coated capsule, rabbit plasma (Examples 2, 3, 4)

O=C(Nc1nc(=O)n(Cc2ccc(Cl)cc2)s1)c1ccc(Cl)cc1.[K] [Compound 3, 4-chloro-N-[2-[(4-chlorophenyl)methyl]-3-oxo-1,2,4-thiadiazol-5-yl]benzamide potassium salt]
Particle size distribution D10 [1, 3]: 0.382 μm | Particle size distribution D50 [1, 3]: 3.64 μm | Particle size distribution D90 [1, 3]: 26.2 μm | Particle size distribution D100 [1, 3]: 584 μm | Particle size distribution D10 [1, 4]: 0.289 μm | Particle size distribution D50 [1, 4]: 1.57 μm | Particle size distribution D90 [1, 4]: 11.7 μm | Particle size distribution D100 [1, 4]: 35.3 μm | Particle size distribution D10 ([1]; before milling): 0.876 μm | Particle size distribution D50 ([1]; before milling): 13.4 μm | Particle size distribution D90 ([1]; before milling): 205 μm | Particle size distribution D100 ([1]; before milling): 665 μm | Plasma concentration, mean ([2]; 0.00 h, enteric coated capsule, rabbit): 0.000 ng/mL | Plasma concentration, mean ([2]; 0.00 h, non-coated capsule, rabbit): 0.000 ng/mL | Plasma concentration, mean ([2]; 0.16 h, enteric coated capsule, rabbit): 0.000 ng/mL | Plasma concentration, mean ([2]; 0.16 h, non-coated capsule, rabbit): 169.000 ng/mL | Plasma concentration, mean ([2]; 0.25 h, enteric coated capsule, rabbit): 0.000 ng/mL | Plasma concentration, mean ([2]; 0.25 h, non-coated capsule, rabbit): 255.336 ng/mL | Plasma concentration, mean ([2]; 0.50 h, enteric coated capsule, rabbit): 0.000 ng/mL | Plasma concentration, mean ([2]; 0.50 h, non-coated capsule, rabbit): 457.796 ng/mL | Plasma concentration, mean ([2]; 1.00 h, enteric coated capsule, rabbit): 4.721 ng/mL | Plasma concentration, mean ([2]; 1.00 h, non-coated capsule, rabbit): 2349.624 ng/mL | Plasma concentration, mean ([2]; 2.00 h, enteric coated capsule, rabbit): 93.881 ng/mL | Plasma concentration, mean ([2]; 2.00 h, non-coated capsule, rabbit): 4456.537 ng/mL | Plasma concentration, mean ([2]; 4.00 h, enteric coated capsule, rabbit): 2558.779 ng/mL | Plasma concentration, mean ([2]; 4.00 h, non-coated capsule, rabbit): 16997.495 ng/mL | Plasma concentration, mean ([2]; 6.00 h, enteric coated capsule, rabbit): 7906.592 ng/mL | Plasma concentration, mean ([2]; 6.00 h, non-coated capsule, rabbit): 21418.736 ng/mL | Plasma concentration, mean ([2]; 8.00 h, enteric coated capsule, rabbit): 16147.149 ng/mL | Plasma concentration, mean ([2]; 8.00 h, non-coated capsule, rabbit): 39754.464 ng/mL | Plasma concentration, mean ([2]; 24.00 h, enteric coated capsule, rabbit): 66084.614 ng/mL | Plasma concentration, mean ([2]; 24.00 h, non-coated capsule, rabbit): 75168.570 ng/mL | Plasma concentration, mean ([2]; 48.00 h, enteric coated capsule, rabbit): 79465.599 ng/mL | Plasma concentration, mean ([2]; 48.00 h, non-coated capsule, rabbit): 77379.051 ng/mL | Plasma concentration, mean ([2]; 72.00 h, enteric coated capsule, rabbit): 49785.289 ng/mL | Plasma concentration, mean ([2]; 72.00 h, non-coated capsule, rabbit): 60164.693 ng/mL | improvement in systemic exposure compared with the milled free base active ingredient ([2]; dry milled, capsules, 90 mg/kg oral, rabbit): more modest improvement | AUCextrap ([2]; enteric coated capsule, rabbit plasma (Examples 5, 6, 7)): 69.48 ± 19.80% | AUC(0-inf) [2, 5]: 18600 ± 13800 µg·h/mL | AUC(0-t) [2, 5]: 3990 ± 43.3 µg·h/mL | Cmax [2, 5]: 79500 ± 5430 ng/mL | MRT last [2, 5]: 42 ± 0.696 h | Tmax [2, 5]: 48 h | half-life [2, 5]: 189 ± 158 h | AUC(0-inf) [2, 6]: 9370 ± 3380 µg·h/mL | AUC(0-t) [2, 6]: 4530 ± 589 µg·h/mL | Cmax [2, 6]: 81900 ± 10400 ng/mL | MRT last [2, 6]: 39.6 ± 3.88 h | Tmax [2, 6]: 40 ± 13.9 h | half-life [2, 6]: 71.6 ± 22.6 h | AUCextrap ([2]; non-coated capsule, rabbit plasma (Examples 2, 3, 4)): 52.23 ± 10.63%
